The record followed here is patent publication EP0654028B1, “3- AND 5-SUBSTITUTED 1,2,3,4-OXATRIAZOLE-5-IMINE COMPOUNDS, A PROCESS FOR THE PREPARATION THEREOF, A PHARMACEUTICAL PREPARATION CONTAINING SAID COMPOUNDS AND THE USE OF SAID COMPOUNDS FOR THE PREPARATION OF MEDICAMENTS” (A/S GEA Farmaceutisk Fabrik, priority 1992, dated 1994).

One experiment has as its system blood platelets (thrombocytes). As to the kind of experiment: Inhibition of ADP-induced blood platelet aggregation in platelet-rich plasma (aggregometer measurement, Born). Type of experiment: cell-based, healthy testees.
Conditions: not given
As to `O=[N+]([O-])OCC(CO[N+](=O)[O-])O[N+](=O)[O-]` [GTN, nitroglycerine, reference compound], the “inhibition of blood platelet aggregation (result in words)” value is “inactive”.

Still in this experiment, the particulars now being: PRP from citrate stabilized venous blood, 37°C, test substance incubated three minutes, ADP 2 to 4 µM as pro-aggregating substance; linear regression; read-out: IC₅₀.
For the compound `CC(=O)Nc1nc(C)c(S(=O)(=O)[N-]c2n[n+](-c3cccc(Cl)c3C)no2)s1` [Example 2, 3-(3-chloro-2-methylphenyl)-1,2,3,4-oxatriazole-5-(N-2-acetamido-4-methyl-5-thiazolesulphamoyl)imine], the IC50 came out at 0.37 µM. On the same count and under the same terms, then `CCOC(=O)C(Cc1ccccc1)NC(=O)[N-]c1n[n+](-c2cccc(Cl)c2C)no1` (stereo not shown) [Example 9, 3-(3-chloro-2-methylphenyl)-1,2,3,4-oxatriazole-5(N-2-carbamoyl-3-phenylpropionic acid ethyl ester)imine], with 7.9 µM; and `Cc1c(Cl)cccc1-[n+]1noc([N-]C(=O)NS(=O)(=O)c2ccccc2)n1` [Example 1, 3-(3-chloro-2-methylphenyl)-1,2,3,4-oxatriazole-5-(N-phenylsulphonylcarbamoyl) imine], with 0.49 µM.

On to `CCOC(=O)NC(=O)[N-]c1n[n+](-c2cccc(Cl)c2C)no1` [Example 7, 3-(3-chloro-2-methylphenyl)-1,2,3,4-oxatriazole-5-(N-carbethoxy-carbamoyl)imine], for which the IC50 came out at 0.16 µM.

On to `CCOC(=O)CNC(=O)[N-]c1n[n+](-c2cccc(Cl)c2C)no1` [Example 8, 3-(3-chloro-2-methylphenyl)-1,2,3,4-oxatriazole-5-(N-carbethoxymethylcarbamoyl)imine], for which the IC50 worked out at 7.6 µM. Same read-out and setting: in the case of `CCOC(=O)c1ccc(NC(=O)[N-]c2n[n+](-c3cccc(Cl)c3C)no2)cc1` [Example 5, 3-(3-chloro-2-methylphenyl)-1,2,3,4-oxatriazole-5-(N-4-carbethoxyphenylcarbamoyl)imine] it was 2.98 µM; in that of `[NH-]c1c[n+](N2CCOCC2)no1` [SIN-1, reference compound], 3.9 µM. `CC(=O)Nc1ccc(S(=O)(=O)[N-]c2n[n+](-c3cccc(Cl)c3C)no2)cc1` [Example 3, 3-(3-chloro-2-methylphenyl)-1,2,3,4-oxatriazole-5-(N-4-acetylaminophenylsulphamoyl)imine]: the IC50 was 1.01 µM.

As for `COC(=O)C(C)NC(=O)[N-]c1n[n+](-c2cccc(Cl)c2C)no1` (stereo not shown) [Example 10, 3-(3-chloro-2-methylpheny1)-1,2,3,4-oxatriazole-5-(N-2-carbamoylpropionic acid methyl ester)imine], the IC50 stood at 2.31 µM. Still for that read-out and setting: in the case of `Cc1c(Cl)cccc1-[n+]1noc([N-]S(=O)(=O)C[C@]23CCC(CC2=O)C3(C)C)n1` [Example 4, 3-(3-chloro-2-methylphenyl)-1,2,3,4-oxatriazole-5-(N-(1S)-(+)-10-camphorylsulphamoyl)imine] it was 0.08 µM.

Still in this experiment, the particulars now being: read-out: IC₅₀.
In the case of `COc1ccc(S(=O)(=O)NC(=O)[N-]c2n[n+](-c3cccc(Cl)c3C)no2)cc1` [Example 6, 3-(3-chloro-2-methylphenyl)-1,2,3,4-oxatriazole-5-(N-4-methoxy-phenylsulphonylcarbamoyl)imine], the IC50 worked out at 0.67 µM. On the same count and under the same terms, then `O=[N+]([O-])OCC(CO[N+](=O)[O-])O[N+](=O)[O-]` [GTN, nitroglycerine, reference compound], with 100 µM.
